From article PMC10399917 (Journal of Molecular Cell Biology, 2023)
“And” between values parts separate entries of the source, which are not always exact repeats. Equal entries are not always repeated. Where two headings read alike, the source gives them in different places.

Columns and labels:
[1] = target: TMPRSS2–SPIKE interaction (His-TMPRSS2 and SPIKE-FLAG) (Severe acute respiratory syndrome coronavirus 2, UniProt P0DTC2); assay: biochemical; format: binding, SARS-CoV-2
[2] = target: TMPRSS2–SPIKE interaction (SmBiT-TMPRSS2 and SPIKE-LgBiT) (Severe acute respiratory syndrome coronavirus 2, UniProt P0DTC2); format: cell-based, SARS-CoV-2
SPIKE protein = settings: ref Feng et al., 2020; cited from earlier work

SMILES | IC50 ([1]; read-out: IC50, TR-FRET signal) | Inhibition of NanoBiT signal [2] | IC50 ([1]; IC50, TR-FRET signal) | Binding to the SPIKE protein (SPIKE protein)
N#C/C(=C/c1ccc(O)c(O)c1)C(=O)NCc1ccccc1 [AG-490] | ~19 µM |  |  | 
O=C(/C=C/c1ccc(O)c(O)c1)OCCc1ccccc1 [CAPE, caffeic acid phenethyl ester] |  | dose-dependent inhibition | 13.8 µM | 
CC(C)c1onc(-c2c(Cl)cccc2Cl)c1COc1ccc(/C=C/c2cccc(C(=O)O)c2)c(Cl)c1 [GW4064] | ~7 µM |  |  | 
Cc1cc(C(C#N)c2ccc(Cl)cc2)c(Cl)cc1NC(=O)c1cc(I)cc(I)c1O (stereo not drawn) [closantel] |  |  | ~17 µM | 
CC1=NN(c2ccc(C)c(C)c2)C(=O)/C1=N\Nc1cccc(-c2cccc(C(=O)O)c2)c1O [eltrombopag olamine] |  |  | ~20 µM and 20.6 µM | bind to the SPIKE protein
Cc1cc2c(C(C)C)c(O)c(O)c(C=O)c2c(O)c1-c1c(C)cc2c(C(C)C)c(O)c(O)c(C=O)c2c1O [gossypol acetate] |  | dose-dependent inhibition | 0.69 µM | 
